Data as given in ChEMBL document CHEMBL5365473, “Novel Sulfonylurea-Based NLRP3 Inflammasome Inhibitor for Efficient Treatment of Nonalcoholic Steatohepatitis, Endotoxic Shock, and Colitis” (J Med Chem, 2023).

Biological target: NACHT, LRR and PYD domains-containing protein 3 (Mus musculus, UniProt Q8R4B8)
Assay: Inhibition of NLRP3 inflammasome in mouse […] cells assessed as inhibition of LPS/ATP-induced IL-1 beta secretion primed with LPS for 4.5 hs followed by incubation with compound for 30 mins and later stimulation with ATP for 30 mins by ELISA
Assay type: cell-based, J774.A1

Sequence of NACHT, LRR and PYD domains-containing protein 3 (Q8R4B8 whole entry, the tested form may be a part): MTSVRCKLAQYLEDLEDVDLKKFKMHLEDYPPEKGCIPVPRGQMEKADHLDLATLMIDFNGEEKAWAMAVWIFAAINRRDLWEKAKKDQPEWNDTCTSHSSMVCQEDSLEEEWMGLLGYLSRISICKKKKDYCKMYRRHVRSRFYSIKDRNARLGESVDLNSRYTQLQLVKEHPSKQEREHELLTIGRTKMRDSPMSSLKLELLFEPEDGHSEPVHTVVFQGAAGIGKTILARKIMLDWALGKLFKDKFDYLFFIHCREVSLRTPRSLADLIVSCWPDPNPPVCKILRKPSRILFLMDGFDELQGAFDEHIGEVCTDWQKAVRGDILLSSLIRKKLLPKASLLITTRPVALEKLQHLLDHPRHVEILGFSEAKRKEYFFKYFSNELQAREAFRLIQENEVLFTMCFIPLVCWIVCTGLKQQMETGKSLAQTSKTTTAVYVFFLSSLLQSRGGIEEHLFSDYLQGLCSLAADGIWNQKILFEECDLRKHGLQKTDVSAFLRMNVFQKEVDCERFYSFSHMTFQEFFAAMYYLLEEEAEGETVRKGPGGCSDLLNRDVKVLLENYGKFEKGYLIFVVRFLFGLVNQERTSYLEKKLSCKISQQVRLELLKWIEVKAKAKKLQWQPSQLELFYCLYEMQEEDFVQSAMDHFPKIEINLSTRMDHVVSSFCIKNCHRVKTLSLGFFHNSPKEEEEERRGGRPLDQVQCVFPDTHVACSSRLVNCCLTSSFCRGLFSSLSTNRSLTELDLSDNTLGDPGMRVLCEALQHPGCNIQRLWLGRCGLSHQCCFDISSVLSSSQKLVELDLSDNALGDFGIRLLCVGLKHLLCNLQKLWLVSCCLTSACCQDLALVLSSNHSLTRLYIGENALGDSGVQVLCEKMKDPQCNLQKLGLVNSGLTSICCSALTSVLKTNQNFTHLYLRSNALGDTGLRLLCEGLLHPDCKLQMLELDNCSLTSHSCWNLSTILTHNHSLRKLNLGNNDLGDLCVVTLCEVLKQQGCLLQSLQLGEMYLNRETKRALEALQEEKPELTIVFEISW

Row | Structure (SMILES) | IC50 [µM]
1 | CC(=O)c1cccc(S(=O)(=O)NC(=O)Nc2c3c(cc4c2CCC4)CCC3)c1 | > 20
2 | CN(C)c1ccc(S(=O)(=O)NC(=O)Nc2c3c(cc4c2CCC4)CCC3)cc1 | > 10
3 | Cc1cc(C)cc(NC(=O)NS(=O)(=O)c2ccc(CN(C)C)cc2)c1 | > 10
4 | Cc1cccc(C)c1NC(=O)NS(=O)(=O)c1ccc(CN(C)C)cc1 | > 10
5 | CN(C)c1ccc(-c2c3c(c(NC(=O)NS(=O)(=O)c4cc(C(C)(C)O)co4)c4c2CCC4)CCC3)cc1 | > 5
6 | CN1CCN(Cc2ccc(S(=O)(=O)NC(=O)Nc3c4c(cc5c3CCC5)CCC4)cc2)CC1 | > 10
7 | CC(C)(O)c1cc(Br)cc(S(=O)(=O)NC(=O)Nc2c3c(cc4c2CCC4)CCC3)c1 | > 20
8 | CC(C)(C)OC(=O)Nc1ccc(-c2c3c(c(NC(=O)NS(=O)(=O)c4cc(C(C)(C)O)co4)c4c2CCC4)CCC3)cc1 | > 5

Other lines, results leading:

Row | IC50 [µM] | Structure (SMILES)
9 | > 5 | CC(C)(O)c1coc(S(=O)(=O)NC(=O)Nc2c3c(c(-c4ccc(C=O)cc4)c4c2CCC4)CCC3)c1
10 | 5 | COC1CN(Cc2cccc(S(=O)(=O)NC(=O)Nc3c4c(cc5c3CCC5)CCC4)c2)C1
11 | 3.72 | CNC(=O)c1cccc(S(=O)(=O)NC(=O)Nc2c3c(cc4c2CCC4)CCC3)c1
12 | > 5 | CC(C)(O)c1coc(S(=O)(=O)NC(=O)Nc2c3c(c(-c4cccc(C#N)c4)c4c2CCC4)CCC3)c1
13 | > 5 | CC(C)(C)OC(=O)N1C=C(c2c3c(c(NC(=O)NS(=O)(=O)c4cc(C(C)(C)O)co4)c4c2CCC4)CCC3)CCC1
14 | 1.73 | CCCCCN(C)Cc1ccc(S(=O)(=O)NC(=O)Nc2c3c(cc4c2CCC4)CCC3)cc1
15 | 1.25 | O=C(Nc1c2c(cc3c1CCC3)CCC2)NS(=O)(=O)c1ccc(CN2CCCCC2)cc1
16 | 1.12 | COC(=O)c1ccc(-c2c3c(c(NC(=O)NS(=O)(=O)c4cc(C(C)(C)O)co4)c4c2CCC4)CCC3)cc1
